Data set [1] in a line: MTT cytotoxicity assay, HL60 cells. The following applies: human, hl60 cells, HL60, 30 min., read-out: % Inhibition MTT Reduction. Format: cell-based. An excerpt: (§1) This experiment describes the affect of asperlin on cellular respiration (mitochondrial activity) by measuring the reduction of the tetrazolium salt MTT to formazan crystals (Moseman, et al). This assay served as a control to ensure that the decrease in the fluorescence observed in Example I, Table I, was not the result of the fluorescent dye leaking from the cells due to disruption of the cell membrane. To address this issue, the mitochondrial activity of β2 and β1 integrin expressing cells in the presence of asperlin was quantitated using a commercially available MTT cytotoxicity kit (Promega No. G4100).
(§2) HL60 and U937 cells were purchased from the American Type Culture Collection (ATCC) and maintained in RPMI 1640 culture media containing 10% heat inactivated fetal bovine serum (refer to Example I, materials). HL60 cells were used between passages 20 and 30. HL60 cells were stimulated by a four day exposure to DMSO, as described in Example I, materials. Falcon round bottom tissue culture plates (No. 3077) were used for the experiment. All remaining reagents were supplied in Promega's MTT cytotoxicity kit (Catalog No. G4100).
(§3) The assay procedure described in the Promega MTT kit was used with the following changes.
(§4) Asperlin was solubilized in 100% DMSO at a concentration of 50 mg/ml. The 50 mg/ml asperlin stock was diluted to 400 μg/ml with culture media containing 5% fetal bovine serum (FBS). This solution was further diluted to 80 and 20 μg/ml with culture media supplemented with 5% FBS plus 2% DMSO. 50 μl of the 20 and 80 μg/ml asperlin solutions were added to wells of a sterile, round bottom 96 well assay plate. Control wells received 50 μl of culture media containing 5% FBS plus 2% DMSO. Duplicate assay wells were prepared such that U937 and HL60 cells could be evaluated on the same plate. The cell density of β1 integrin expressing U937, and β2 integrin expressing HL60 cell cultures were determined using a hemacytometer.
(§5) Cells were harvested by centrifuging for 5 minutes at 1000 rpm, room temperature, in a Sorvall RT600 bench-top centrifuge. The HL60 cell pellet was resuspended in fresh culture media at a concentration of 5×10^6 cells/ml. The U937 cell pellet was resuspended in fresh culture media at a concentration of 2.5×10^6 cells/ml. 2.5×10^5 β2 integrin expressing HL60 cells, contained in 50 μl, were added to wells of the assay plate using a multichannel pipettor. In duplicate assay wells, 1.25×10^5 β1 integrin expressing U937 cells, contained in 50 μl, were added to wells of the assay plate using a multichannel pipettor. Assay plates were incubated for either 30 minutes, 60 minutes, or 4 hours in a 37° C. 5% CO2, humidified incubator.
(§6) At the appropriate time point, 15 μl of MTT reagent, supplied in the Promega assay kit, was added to each well using a multichannel pipettor. Assay plates were incubated in the 37° C. incubator, as just described, for two hours. The MTT reduction reaction was quenched, and the visible formazan crystals were solubilized by adding exactly 100 μl of Promega's solubilization buffer to each well. […] The optical density (OD) of each well of the assay plate was determined using a microtiter plate reader (Flow Labs) set at a wavelength of 580 nm with a correction wavelength of 630 nm.
(§7) Replicate sample ODs were average. The percentage of inhibition of cellular respiration (mitochondrial activity) by asperlin was quantitated by the following equation: […]
On the technique in general: Tetrazolium dyes change colour on reduction, which living cells bring about.

Another data set has as its system HL60 cells. Briefly: MTT cytotoxicity assay, HL60 cells. As to conditions: for Average Optical Density: HL60, 30 min. Format: cell-based.
Excerpt: as §1, §2, §3, §4, §5, §6, §7

Another data set has as its system LFA-1. The data set is described as follows: β2 integrin/ICAM-1 homotypic (cell:cell) binding of 8866 cells. Format: cell-based, human. An excerpt: The following experiment describes the inhibition of homotypic (cell:cell) binding of β2 and ICAM-1 expressing cells by asperlin. 8866 cells, a human B-cell line, were supplied by Athena Neurosciences (San Francisco, Calif.). These cells constitutively express both the β2 integrin referred to as LFA-1, and ICAM-1 on the cell surface. In culture, 8866 cells spontaneously bind, or clump together, as a result of β2 integrin binding to ICAM-1.
8866 cells were maintained in RPMI 1640 culture media (refer to Example I) supplemented with […] HEPES buffer (Gibco No. 15630-080). Cells were subcultured when the cell density was approximately 1×10^6 cells/ml. […]
8866 cells were harvested by centrifuging 5 minutes, at 1000 rpm, room temperature, in a Sorvall RT6000 centrifuge. The cell pellet was resuspended in culture media and cells were counted using a hemacytometer. […]
Asperlin was solubilized in 100% DMSO at a concentration of 20 mg/ml, 10 mg/ml, 5 mg/ml, and 2.5 mg/ml. […] The progression of homotypic binding was monitored by microscopic observations after 1 and 2 hours of incubation.
Inhibition β2 integrin dependent homotypic binding to ICAM-1 by asperlin was photographically recorded using a Nikon 35 mm camera attached to a Nikon Diaphot 300 inverted microscope (filter setting NCBII, objective 10×, and light setting of photo).

Data set [2] can be described thus: MTT cytotoxicity assay, U937 cells. Type of data set: cell-based, human. The following applies: human, u937 cells, U937, 30 min., read-out: % Inhibition MTT Reduction.
Excerpt: as §1, §2, §3, §4, §5
(§8) At the appropriate time point, 15 μl of MTT reagent, supplied in the Promega assay kit, was added to each well using a multichannel pipettor. Assay plates were incubated in the 37° C. incubator, as just described, for two hours. The MTT reduction reaction was quenched, and the visible formazan crystals were solubilized by adding exactly 100 μl of Promega's solubilization buffer to each well. Assay plates were incubated for at least 18 hours in the same 37° C. incubator just described to solubilize the formazan reagent. Assay plates were removed from the incubator and allowed to cool to room temperature. The optical density (OD) of each well of the assay plate was determined using a microtiter plate reader (Flow Labs) set at a wavelength of 580 nm with a correction wavelength of 630 nm.
(§9) Replicate sample ODs were average. The percentage of inhibition of cellular respiration (mitochondrial activity) by asperlin was quantitated by the following equation:
(§10) % Inhibition=(1-(Sample OD.div.Average Control OD))×100

Another data set deals with U937 cells. Briefly: MTT cytotoxicity assay, U937 cells. As to conditions: for Average Optical Density / Optical Density: U937, 30 min.; for Optical Density: single well, 580 nm. Type of data set: cell-based, human.
Excerpt: as §1, §2, §3, §4, §5, §8, §9, §10

Several values for one entry are separate records, joined by “and”; a condition that tells them apart may be missing. Identical values can stand only once.

Take `CC(=O)OC1C=CC(=O)OC1C1OC1C` [Asperlin, 6,7-Anhydro-2,3,8-trideoxy-D-galacto-oct-2-enoic acidδ-lactone 4-acetate]: the cytotoxicity at 0.5 h in data set [1] (Asperlin 10 μg/mL) is 8%; in data set [1] (Asperlin 40 μg/mL), 27%; in data set [2] (Asperlin 10 μg/mL), 0%; in data set [2] (Asperlin 40 μg/mL), 11%. The “Average Optical Density” value with HL60 cells (Asperlin 10 μg/mL) is given as “.819”; with HL60 cells (Asperlin 40 μg/mL), “.649”; with U937 cells (Asperlin 10 μg/mL), 1.532; in the data set on U937 cells (Asperlin 40 μg/mL) it was 1.386. Besides, the “Cytotoxicity (in words)” value in the data set with HL60 cells (β2 integrin expressing HL60 cells) and in the data set on U937 cells (β1 integrin expressing U937 cells) was “not cytotoxic” each time. Further, the “Inhibition of 8866 cell homotypic binding, visual inspection (in words)” value in the data set with LFA-1 (after 1 hour of incubation) is “inhibit cell--cell binding in a dose dependent manner”; in the data set on LFA-1 (after 2 hours of incubation) it was “inhibited 8866, β2 integrin mediated homotypic binding to ICAM-1 in a dose dependent manner”. The “Optical Density” value in the data set with U937 cells (Asperlin 10 μg/mL) is 1.410 and 1.601 and 1.584; in the data set with U937 cells (Asperlin 40 μg/mL), 1.362 and 1.352 and 1.391.
